Key:
[1] = target: T1, NaV1.7 (Homo sapiens, UniProt Q15858); assay: Whole cell patch clamp, internal block of NaV1.7 current (compound in intracellular solution); type: cell-based; details: test concentration 0.32 μM; text says intracellular inhibition (compound in internal solution), 5 Hz stimulation; read-out: NaV1.7 Extracellular Inhibition
T1 construct: expressed in transfected cells; host or cells: Tetracycline-inducible cell line kept under hygromycin and blasticidin selection
Method: (§1) NaV1.7 was expressed upon induction with tetracycline. Cells were cultured in DMEM containing 10% dialyzed Fetal Bovine Serum (VWR, Radnor, PA), 1% Glutamax (VWR, Radnor, PA), 1% Penicillin-Streptomycin (VWR, Radnor, PA), 100 mg/L Hygromycin (Thermo Fisher Scientific, Waltham, MA and 5 mg/L Blasticidin (Alfa Aesar, Haverhill, MA). Cells were grown and maintained at 37° C. in a humidified environment containing 10% CO2 in air. Cells were detached from the culture flask for passage and harvested using 0.05% Trypsin-EDTA (Thermo Fisher Scientific, Waltham, MA). To induce NaV1.7, cells were induced with tetracycline (0.1-1 μg/mL, IBI Scientific, Peosta, IA) the day before recording and plated onto 24-well plates. Cells were washed with DPBS (VWR, Radnor, PA), trypsinized and then triturated five times in 10 mL of growth media to break apart cell aggregates. […]
(§2) Once the recording was started, the voltage protocol was run at 30 second intervals for 5 minutes to get a stable baseline. […] Currents were recorded using PatchMaster software with Heka EPC10 (HEKA Electronics, Lambrecht, Germany). […]
(§3) The data was plotted using the Patchmaster software (HEKA Electronics, Lambrecht, Germany) and analyzed by plotting the minimum current during the voltage step to −20 mV (peak inward current) as a function of time. […]

[2] = target: T1, NaV1.7; assay: Whole cell patch clamp, external block of NaV1.7 current (compound in external solution); type: cell-based; details: test concentration 10 μM; compound applied in external solution for 5 minutes, 5 Hz stimulation; read-out: NaV1.7 Extracellular Inhibition
Method: as §1, §2, §3

T1 sequence (Q15858 whole entry): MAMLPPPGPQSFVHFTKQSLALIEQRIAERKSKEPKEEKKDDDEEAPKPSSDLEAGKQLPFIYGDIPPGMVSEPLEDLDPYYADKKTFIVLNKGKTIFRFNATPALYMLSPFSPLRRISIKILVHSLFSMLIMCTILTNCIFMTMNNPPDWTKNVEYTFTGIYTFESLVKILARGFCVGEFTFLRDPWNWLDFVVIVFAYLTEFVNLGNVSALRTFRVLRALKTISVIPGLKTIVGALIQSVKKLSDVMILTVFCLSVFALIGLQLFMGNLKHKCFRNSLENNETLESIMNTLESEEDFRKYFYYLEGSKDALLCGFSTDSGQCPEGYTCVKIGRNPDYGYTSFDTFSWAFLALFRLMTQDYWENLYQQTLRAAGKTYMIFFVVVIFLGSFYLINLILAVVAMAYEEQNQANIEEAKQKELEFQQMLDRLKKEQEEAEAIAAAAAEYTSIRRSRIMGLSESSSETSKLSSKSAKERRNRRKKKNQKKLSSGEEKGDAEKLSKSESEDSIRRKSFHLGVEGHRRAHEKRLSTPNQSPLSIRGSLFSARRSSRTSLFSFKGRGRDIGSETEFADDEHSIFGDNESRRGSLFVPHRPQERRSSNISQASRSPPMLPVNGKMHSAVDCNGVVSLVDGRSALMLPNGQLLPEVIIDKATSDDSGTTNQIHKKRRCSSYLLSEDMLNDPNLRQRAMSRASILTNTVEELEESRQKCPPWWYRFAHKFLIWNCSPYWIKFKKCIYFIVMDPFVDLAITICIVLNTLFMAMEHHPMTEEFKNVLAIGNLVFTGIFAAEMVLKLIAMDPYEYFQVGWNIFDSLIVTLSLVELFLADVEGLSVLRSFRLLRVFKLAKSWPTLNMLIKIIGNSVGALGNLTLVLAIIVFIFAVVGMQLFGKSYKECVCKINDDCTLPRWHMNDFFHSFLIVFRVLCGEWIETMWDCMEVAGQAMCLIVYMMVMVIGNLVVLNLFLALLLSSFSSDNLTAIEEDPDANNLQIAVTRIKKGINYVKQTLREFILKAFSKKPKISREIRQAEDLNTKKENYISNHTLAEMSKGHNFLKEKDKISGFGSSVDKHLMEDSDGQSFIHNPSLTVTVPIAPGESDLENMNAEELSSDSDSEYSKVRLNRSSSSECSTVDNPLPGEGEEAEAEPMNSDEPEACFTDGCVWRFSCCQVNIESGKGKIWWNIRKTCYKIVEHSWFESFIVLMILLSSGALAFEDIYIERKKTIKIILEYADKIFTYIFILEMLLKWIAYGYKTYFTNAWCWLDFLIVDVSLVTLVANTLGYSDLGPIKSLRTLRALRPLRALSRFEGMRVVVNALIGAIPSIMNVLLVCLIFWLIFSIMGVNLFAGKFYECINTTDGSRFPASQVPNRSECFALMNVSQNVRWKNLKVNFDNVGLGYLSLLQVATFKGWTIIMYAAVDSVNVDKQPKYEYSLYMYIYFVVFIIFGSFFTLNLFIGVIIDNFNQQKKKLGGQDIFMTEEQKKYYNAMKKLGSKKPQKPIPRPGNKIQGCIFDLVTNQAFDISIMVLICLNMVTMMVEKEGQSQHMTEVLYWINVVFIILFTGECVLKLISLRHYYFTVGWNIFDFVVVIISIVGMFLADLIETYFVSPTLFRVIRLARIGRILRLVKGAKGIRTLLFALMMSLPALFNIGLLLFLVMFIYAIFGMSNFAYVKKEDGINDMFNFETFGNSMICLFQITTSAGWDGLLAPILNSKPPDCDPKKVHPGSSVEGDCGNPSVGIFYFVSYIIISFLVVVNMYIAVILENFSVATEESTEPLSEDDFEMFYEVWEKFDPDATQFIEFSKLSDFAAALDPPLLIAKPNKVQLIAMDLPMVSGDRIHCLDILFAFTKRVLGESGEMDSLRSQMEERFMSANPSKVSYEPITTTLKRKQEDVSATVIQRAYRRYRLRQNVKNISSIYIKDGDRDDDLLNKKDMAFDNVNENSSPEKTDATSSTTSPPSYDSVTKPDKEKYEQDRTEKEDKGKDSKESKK

inhibition at 0.32 µM [1]: > 70%
inhibition at 10 µM [2]: 40 to 70%
Compound: Cc1cccc(C)c1NC(=O)C[N+]1(CCOC(=O)c2ccccc2Cl)CCCCCC1 [Compound 1, 1-(2-((2-chlorobenzoyl)oxy)ethyl)-1-(2-((2,6-dimethylphenyl)amino)-2-oxoethyl)azepan-1-ium bromide]
